Data: patent US11814367B2, “Inhibitors of glycogen synthase 1 (GYS1) and methods of use thereof” (Maze Therapeutics, Inc., priority 2021, dated 2023)

Legend:
[1] = target: hGYS2 enzyme (recombinant hGYS2/GN1 protein) (Homo sapiens (Human), UniProt P54840); assay: GYS2 coupled enzyme assay (PK/LDH); type: biochemical; settings: geometric mean of at least 2 assay runs on separate days, read-out: Avg_IC50
In short: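 IC50 came from Hill fits of duplicate percent inhibition, based on control-normalized slopes of 340 nm NADH decline read each minute for 10 min. The reaction held recombinant hGYS2/GN1 (200 nM) with glycogen, UDP-glucose, G6P and PEP, plus PK/LDH coupling at pH 7.5 and 2.5% DMSO.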

[2] = target: hGYS1 enzyme (recombinant hGYS1/GN1 protein) (Homo sapiens (Human), UniProt P13807); assay: GYS1 coupled enzyme assay (PK/LDH); type: biochemical; settings: hGYS1/GN1 50 nM, UDP-Glucose 0.8 mM, G6P 1 mM; geometric mean of at least 2 runs
Chain of hGYS1 enzyme (recombinant hGYS1/GN1 protein) (P13807 whole entry): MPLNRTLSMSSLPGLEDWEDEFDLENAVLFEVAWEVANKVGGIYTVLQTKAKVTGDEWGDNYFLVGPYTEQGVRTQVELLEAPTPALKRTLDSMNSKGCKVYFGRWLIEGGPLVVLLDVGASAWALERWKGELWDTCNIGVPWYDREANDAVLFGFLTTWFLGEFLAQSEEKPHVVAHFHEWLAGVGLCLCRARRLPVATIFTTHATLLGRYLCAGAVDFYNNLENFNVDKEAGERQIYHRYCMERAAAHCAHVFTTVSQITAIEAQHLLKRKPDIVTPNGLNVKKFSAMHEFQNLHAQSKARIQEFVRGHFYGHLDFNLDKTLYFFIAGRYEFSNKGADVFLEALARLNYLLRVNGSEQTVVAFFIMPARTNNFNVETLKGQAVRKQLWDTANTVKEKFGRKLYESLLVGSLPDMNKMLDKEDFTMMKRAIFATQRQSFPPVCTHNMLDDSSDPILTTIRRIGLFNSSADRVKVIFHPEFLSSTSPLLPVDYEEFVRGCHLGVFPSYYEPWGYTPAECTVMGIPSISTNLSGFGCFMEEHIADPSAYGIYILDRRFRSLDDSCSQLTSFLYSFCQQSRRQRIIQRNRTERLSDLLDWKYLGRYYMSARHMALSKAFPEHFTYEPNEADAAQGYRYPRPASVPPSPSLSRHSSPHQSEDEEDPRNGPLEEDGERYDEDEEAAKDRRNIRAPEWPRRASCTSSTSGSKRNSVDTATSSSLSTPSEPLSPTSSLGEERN
Chain of hGYS1 enzyme (recombinant hGYS1/GN1 protein) (P46976 whole entry partner): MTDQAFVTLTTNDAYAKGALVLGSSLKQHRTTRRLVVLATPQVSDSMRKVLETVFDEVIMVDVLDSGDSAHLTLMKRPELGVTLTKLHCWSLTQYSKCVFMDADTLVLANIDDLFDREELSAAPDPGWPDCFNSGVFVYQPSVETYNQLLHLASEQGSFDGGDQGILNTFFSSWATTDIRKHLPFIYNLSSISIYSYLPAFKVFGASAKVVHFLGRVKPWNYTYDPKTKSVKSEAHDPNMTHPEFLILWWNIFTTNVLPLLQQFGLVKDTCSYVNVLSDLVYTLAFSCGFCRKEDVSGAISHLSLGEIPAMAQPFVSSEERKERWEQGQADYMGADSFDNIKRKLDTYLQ

Chain of hGYS2 enzyme (recombinant hGYS2/GN1 protein) (P54840 whole entry): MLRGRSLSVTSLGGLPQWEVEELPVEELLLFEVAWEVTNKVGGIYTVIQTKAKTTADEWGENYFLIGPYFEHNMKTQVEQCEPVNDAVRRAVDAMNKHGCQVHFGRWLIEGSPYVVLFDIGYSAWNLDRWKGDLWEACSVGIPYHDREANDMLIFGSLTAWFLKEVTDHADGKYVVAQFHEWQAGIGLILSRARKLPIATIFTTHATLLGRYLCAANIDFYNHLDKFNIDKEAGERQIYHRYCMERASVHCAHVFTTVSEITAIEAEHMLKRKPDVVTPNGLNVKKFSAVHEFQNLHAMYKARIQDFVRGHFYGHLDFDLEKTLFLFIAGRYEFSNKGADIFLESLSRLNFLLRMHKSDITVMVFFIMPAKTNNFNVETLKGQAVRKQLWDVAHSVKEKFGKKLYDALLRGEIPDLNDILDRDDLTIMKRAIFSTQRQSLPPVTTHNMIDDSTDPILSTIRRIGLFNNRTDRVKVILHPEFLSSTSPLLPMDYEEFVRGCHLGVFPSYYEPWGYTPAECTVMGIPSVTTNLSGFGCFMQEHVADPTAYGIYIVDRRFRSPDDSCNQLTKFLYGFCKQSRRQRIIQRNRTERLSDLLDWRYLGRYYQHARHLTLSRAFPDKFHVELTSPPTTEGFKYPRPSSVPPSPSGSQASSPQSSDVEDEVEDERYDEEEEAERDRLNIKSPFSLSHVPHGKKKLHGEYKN
Chain of hGYS2 enzyme (recombinant hGYS2/GN1 protein) (P46976 whole entry partner): as the sequence (P46976 whole entry partner) above

Row | SMILES | IC50 [1] | IC50 [2]
1 | CC(C)c1ccc([C@@H](NC(=O)[C@@H]2C[C@@H](F)CN2C(=O)Cc2cc3ccccc3n2C)c2ccccc2)cc1 [Compound 137, (2S,4R)-4-fluoro-1-[2-(1-methyl-1H-indol-2-yl)acetyl]-N-[(S)-phenyl[4-(propan-2-yl)phenyl]methyl]pyrrolidine-2-carboxamide] | > 100 µM | 17 nM
2 | CC(C)c1ccc([C@@H](NC(=O)[C@@H]2C[C@@H](F)CN2C(=O)Cc2cnn[nH]2)c2cccc(F)c2)cc1F [Compound 645, (2S,4R)-4-fluoro-N-[(S)-[3-fluoro-4-(propan-2-yl)phenyl](3-fluoropheny)methyl]-1-[2-(1H-1,2,3-triazol-5-yl)acetyl]pyrrolidine-2-carboxamide] | > 100 µM | 100 nM
3 | O=C(N[C@@H](c1ccccc1)c1ccc(C2CC2)c(F)c1)[C@@H]1C[C@@H](F)CN1C(=O)Cc1cccc2ncccc12 [Compound 443, (2S,4R)-N-[(S)-(4-cyclopropyl-3-fluorophenyl)(phenyl)methyl]-4-fluoro-1-[2-(quinolin-5-yl)acetyl]pyrrolidine-2-carboxamide] | > 100 µM | 28 nM
4 | CC(=O)N1CCCO[C@@H](C(=O)N2C[C@H](F)C[C@H]2C(=O)N[C@@H](c2ccccc2)c2ccc(C(C)C)cc2)C1 [Compound 158, (2S,4R)-1-[(2R)-4-acetyl-1,4-oxazepane-2-carbonyl]-4-fluoro-N-[(S)-phenyl[4-(propan-2-yl)phenyl]methyl]pyrrolidine-2-carboxamide] | > 100 µM | 70 nM
5 | CC(C)c1ccc([C@@H](NC(=O)[C@@H]2C[C@@H](F)CN2C(=O)Cn2cn[nH]c2=O)c2ccccc2)nc1 [Compound 288, (2S,4R)-4-fluoro-1-[2-(5-oxo-4,5-dihydro-1H-1,2,4-triazol-4-yl)acetyl]-N-[(S)-phenyl[5-(propan-2-yl)pyridin-2-yl]methyl]pyrrolidine-2-carboxamide] | > 100 µM | 109 nM
6 | CC(C)c1ccc([C@@H](NC(=O)[C@@H]2C[C@@H](F)CN2C(=O)C(C)(C)c2nnco2)c2ccccc2)cc1F [Compound 334] | > 100 µM | 145 nM
7 | CC(=O)N1C[C@H](F)C[C@H]1C(=O)N[C@@H](c1ccccc1)c1ccc(C2CC2)c(F)c1 [Compound 418, (2S,4R)-1-acetyl-N-[(S)-(4-cyclopropyl-3-fluorophenyl)(phenyl)methyl]-4-fluoropyrrolidine-2-carboxamide] | > 100 µM | 697 nM
8 | CC(C)c1ccc([C@@H](NC(=O)[C@@H]2C[C@@H](F)CN2C(=O)CCc2c[nH]c3ncccc23)c2ccccc2)cc1 [Compound 104, (2S,4R)-4-fluoro-N-[(S)-phenyl[4-(propan-2-yl)phenyl]methyl]-1-(3-{1H-pyrrolo[2,3-b]pyridin-3-yl}propanoyl)pyrrolidine-2-carboxamide] | > 100 µM | 61 nM
9 | Cc1nccn1CCCC(=O)N1C[C@H](F)C[C@H]1C(=O)N[C@@H](c1ccccc1)c1ccc(C(C)C)cc1 [Compound 105, (2S,4R)-4-fluoro-1-[4-(2-methyl-1H-imidazol-1-yl)butanoyl]-N-[(S)-phenyl[4-(propan-2-yl)phenyl]methyl]pyrrolidine-2-carboxamide] | > 100 µM | 249 nM

Further lines, results first:

Row | IC50 [1] | IC50 [2] | SMILES
10 | > 100 µM | 849 nM | CC(C)c1ccc([C@H](NC(=O)[C@@H]2C[C@@H](F)CN2C(=O)Cc2cnn[nH]2)c2ccccc2)cc1Cl [Compound 671, (2S,4R)-N-[(R)-[3-chloro-4-(propan-2-yl)phenyl](phenyl)methyl]-4-fluoro-1-[2-(1H-1,2,3-triazol-5-yl)acetyl]pyrrolidine-2-carboxamide]
11 | > 100 µM | 602 nM | CC(=O)N1C[C@H](F)C[C@H]1C(=O)NC(c1ccccc1)c1ccc(C2CCC2)cn1 (single isomer, unassigned) [Compound 603, (2S,4R)-1-acetyl-N-[(S) or (R)-(5-cyclobutylpyridin-2-yl) (phenyl)methyl]-4-fluoropyrrolidine-2-carboxamide]
12 | > 100 µM | 32 nM | CC(C)c1ccc([C@@H](NC(=O)[C@@H]2C[C@@H](F)CN2C(=O)Cc2cncnc2)c2ccccc2)cc1F [Compound 345, (2S,4R)-4-fluoro-N-[(S)-[3-fluoro-4-(propan-2-yl)phenyl](phenyl)methyl]-1-[2-(pyrimidin-5-yl)acetyl]pyrrolidine-2-carboxamide]
13 | > 100 µM | 54 nM | CC(C)c1ccc([C@@H](NC(=O)[C@@H]2C[C@@H](F)CN2C(=O)Cc2nnc(CNC(=O)OC(C)(C)C)o2)c2ccccc2)cc1 [Compound 237, tert-butyl N-[(5-{2-[(2S,4R)-4-fluoro-2-{[(S)-phenyl[4-(propan-2-yl)phenyl]methyl]carbamoyl}pyrrolidin-1-yl]-2-oxoethyl}-1,3,4-oxadiazol-2-yl)methyl]carbamate]
14 | > 100 µM | 287 nM | O=C(N[C@@H](c1ccccc1)c1ccc(C2CC2)c(F)c1)[C@@H]1C[C@@H](F)CN1C(=O)CN1CCOC1=O [Compound 424, (2S,4R)-N-[(S)-(4-cyclopropyl-3-fluorophenyl)(phenyl)methyl]-4-fluoro-1-[2-(2-oxo-1,3-oxazolidin-3-yl)acetyl] pyrrolidine-2-carboxamide]
15 | > 100 µM | 23 nM | CC(C)c1ccc([C@@H](NC(=O)[C@@H]2C[C@@H](F)CN2C(=O)Cn2ccnn2)c2ccccc2)cc1F [Compound 331, (2S,4R)-4-fluoro-N-[(S)-[3-fluoro-4-(propan-2-yl)phenyl](phenyl)methyl]-1-[2-(1H-1,2,3-triazol-1-yl)acetyl]pyrrolidine-2-carboxamide]
16 | > 100 µM | 60 nM | COc1ccc(CC(=O)N2C[C@H](F)C[C@H]2C(=O)N[C@@H](c2ccccc2)c2ccc(C(C)C)cc2)cc1F [Compound 89, (2S,4R)-4-fluoro-1-[2-(3-fluoro-4-methoxyphenyl)acetyl]-N-[(S)-phenyl[4-(propan-2-yl)phenyl]methyl]pyrrolidine-2-carboxamide]
17 | > 100 µM | 59 nM | CC(C)c1ccc([C@@H](NC(=O)[C@@H]2C[C@@H](F)CN2C(=O)Cn2cnnn2)c2ccccc2)cc1 [Compound 9, (2S,4R)-4-fluoro-N-[(S)-phenyl[4-(propan-2-yl)phenyl]methyl]-1-[2-(1H-1,2,3-tetrazol-1-yl)acetyl]pyrrolidine-2-carboxamide]
18 | > 100 µM | 69 nM | CC(=O)N1CCN(CC(=O)N2C[C@H](F)C[C@H]2C(=O)N[C@@H](c2ccccc2)c2ccc(C(C)C)cc2)C(=O)C1 [Compound 160, (2S,4R)-1-[2-(4-acetyl-2-oxopiperazin-1-yl)acetyl]-4-fluoro-N-[(S)-phenyl[4-(propan-2-yl)phenyl]methyl]pyrrolidine-2-carboxamide]
19 | > 100 µM | 42 nM | CC(C)c1ccc([C@@H](NC(=O)[C@@H]2C[C@@H](F)CN2C(=O)[C@@H]2CNC(=O)O2)c2ccccc2)cc1 [Compound 8, (2S,4R)-4-fluoro-1-[(5S)-2-oxo-1,3-oxazolidine-5-carbonyl]-N-[(S)-phenyl[4-(propan-2-yl)phenyl]methyl]pyrrolidine-2-carboxamide]
20 | > 100 µM | 387 nM | CC(=O)N1C[C@H](F)C[C@H]1C(=O)N[C@@H](c1ccccc1)c1ccc(C(C)C)cc1 [Compound 207, (2S,4R)-1-acetyl-4-fluoro-N-[(S)-phenyl[4-(propan-2-yl)phenyl]methyl]pyrrolidine-2-carboxamide]
